# Test results published in patent US20250296959A1, “B7-H3 TARGETING PEPTIDES AND CONSTRUCTS THEREOF” (Mariana Oncology Inc., priority 2024, published 2025).
# Starred links: 1 amine or outer side, 2 acyl side, 3 side chain; linkers in the order of their positions; H or OH if unused. Positions of bridges follow the written chain, without caps; N, C: chain ends. Non-standard residues stand in square brackets, D forms with d. Residues, ends and D or L forms follow the SMILES beside them. Groups on a side chain read outwards from the residue. *: point of attachment. Ala(piperidin-4-yl) = O=C([C@H](CC1CCN([*:3])CC1)N[*:1])[*:2]; DOTA = O=C(O)CN1CCN(CC(=O)O)CCN(CC(=O)*)CCN(CC(=O)O)CC1; Phe(4-COOH) = N[C@@H](Cc1ccc(C(=O)O)cc1)C(=O)O; Trp(5-F) = N[C@@H](Cc1c[nH]c2ccc(F)cc12)C(=O)O; PEG8 = NCCOCCOCCOCCOCCOCCOCCOCCOCCC(=O)O; C16 diacid = O=C(O)CCCCCCCCCCCCCCC(=O)*; γGlu = O=C(O)[C@H](CCC(=O)[*:2])N[*:1]; 1Nal = N[C@@H](Cc1cccc2ccccc12)C(=O)O; Ala(4-THP) = N[C@@H](CC1CCOCC1)C(=O)O; Val(3-OH) = CC(C)(O)[C@H](N)C(=O)O; cisHyp = O=C(O)[C@@H]1C[C@H](O)CN1; Hyp = O=C(O)[C@@H]1C[C@@H](O)CN1; 4Pal = N[C@@H](Cc1ccncc1)C(=O)O; NMeNle = CCCC[C@H](NC)C(=O)O; PEG4 = NCCOCCOCCOCCOCCC(=O)O; Tle = CC(C)(C)[C@H](N)C(=O)O; hLeu = CC(C)CC[C@H](N)C(=O)O; Nle = CCCC[C@H](N)C(=O)O
# Molecular target: T1, human 4lg B7-H3 (Homo sapiens, UniProt Q5ZPR3)
# T1 sequence (Q5ZPR3 29-534): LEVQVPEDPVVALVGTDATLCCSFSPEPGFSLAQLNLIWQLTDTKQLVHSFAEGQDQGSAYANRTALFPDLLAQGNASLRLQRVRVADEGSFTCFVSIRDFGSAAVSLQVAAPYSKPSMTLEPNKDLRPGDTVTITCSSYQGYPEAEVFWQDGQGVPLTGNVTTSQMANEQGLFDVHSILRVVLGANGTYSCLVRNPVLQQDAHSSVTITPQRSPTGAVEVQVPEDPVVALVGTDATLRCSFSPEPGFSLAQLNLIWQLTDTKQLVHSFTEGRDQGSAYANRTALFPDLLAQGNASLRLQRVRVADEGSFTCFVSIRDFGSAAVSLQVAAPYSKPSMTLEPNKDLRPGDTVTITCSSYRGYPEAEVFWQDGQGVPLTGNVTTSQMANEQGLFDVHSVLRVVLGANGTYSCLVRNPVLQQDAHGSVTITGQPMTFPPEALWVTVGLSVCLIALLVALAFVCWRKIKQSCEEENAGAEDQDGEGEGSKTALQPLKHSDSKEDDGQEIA
# Test: Affinity determination by surface plasmon resonance (SPR) to 4Ig B7-H3
# Conditions: SPR KD—25° C., 4Ig B7-H3; 25° C. flow cell temperature
row,SMILES,Kd
1,"CC(=O)N[C@@H](CCC(C)C)C(=O)N[C@@H](Cc1ccc(O)cc1)C(=O)N[C@H]1CSSC[C@@H](C(=O)N[C@@H](Cc2c[nH]c3ccc(F)cc23)C(=O)N[C@@H](Cc2ccccc2)C(=O)N2CCC[C@H]2C(N)=O)NC(=O)[C@H](Cc2ccc(O)cc2)NC(=O)[C@H](C(C)C)NC(=O)[C@H](CC(=O)O)NC(=O)[C@H](CC2CCOCC2)NC(=O)[C@H](CCCCNC(=O)CN2CCN(CC(=O)O)CCN(CC(=O)O)CCN(CC(=O)O)CC2)NC(=O)CNC(=O)[C@H](C(C)C)NC1=O [compound 292, Ac-hLeu-Y-C-V-G-Lys(DOTA)-ThpA-D-V-Y-C-5FW-F-Pro-CONH2] (Ac-[hLeu]YCVGK(DOTA)[Ala(4-THP)]DVYC[Trp(5-F)]FP-NH2; disulfide 3-11)",1 to 10 nM
2,"CC(=O)N[C@@H](CCC(C)C)C(=O)N[C@@H](Cc1ccc(O)cc1)C(=O)N[C@H]1CSSC[C@@H](C(=O)N[C@@H](Cc2c[nH]c3ccc(F)cc23)C(=O)N[C@@H](Cc2ccccc2)C(=O)N2C[C@H](O)C[C@H]2C(=O)N[C@H](CCCCNC(=O)CN2CCN(CC(=O)O)CCN(CC(=O)O)CCN(CC(=O)O)CC2)C(N)=O)NC(=O)[C@H](Cc2ccc(O)cc2)NC(=O)[C@H](C(C)C)NC(=O)[C@H](CC(=O)O)NC(=O)[C@H](Cc2ccc(O)cc2)NC(=O)[C@H](CCCCN)NC(=O)CNC(=O)[C@H](C(C)C)NC1=O [compound 161, Ac-hLeu-Y-C-V-G-K-Y-D-V-Y-C-5FW-F-4OHPro-dLys(DOTA)-CONH2] (Ac-[hLeu]YCVGKYDVYC[Trp(5-F)]F[Hyp][dK](DOTA)-NH2; disulfide 3-11)",1 to 10 nM
3,"CCCC[C@@H](C(=O)N[C@H](C(=O)N[C@H](CCCCNC(=O)CN1CCN(CC(=O)O)CCN(CC(=O)O)CCN(CC(=O)O)CC1)C(N)=O)[C@@H](C)O)N(C)C(=O)[C@H](Cc1c[nH]c2ccc(F)cc12)NC(=O)[C@@H]1CSSC[C@H](NC(=O)[C@H](Cc2ccc(O)cc2)NC(=O)[C@H](CCC(C)C)NC(C)=O)C(=O)N[C@@H](C(C)C)C(=O)NCC(=O)N[C@@H](CCCCN)C(=O)N[C@@H](Cc2ccc(O)cc2)C(=O)N[C@@H](CC(=O)O)C(=O)N[C@@H](C(C)C)C(=O)N[C@@H](Cc2ccc(O)cc2)C(=O)N1 [compound 176, Ac-hLeu-Y-C-V-G-K-Y-D-V-Y-C-5FW-NMeNle-Thr-dLys(DOTA)-CONH2] (Ac-[hLeu]YCVGKYDVYC[Trp(5-F)][NMeNle]T[dK](DOTA)-NH2; disulfide 3-11)",1 to 10 nM
4,"CC(C)CC[C@H](NC(=O)CCOCCOCCOCCOCCOCCOCCOCCOCCNC(=O)CN1CCN(CC(=O)O)CCN(CC(=O)O)CCN(CC(=O)O)CC1)C(=O)N[C@@H](Cc1ccc(O)cc1)C(=O)N[C@H]1CSSC[C@@H](C(=O)N[C@@H](Cc2c[nH]c3ccc(F)cc23)C(=O)N[C@@H](Cc2ccccc2)C(=O)N2CCC[C@H]2C(N)=O)NC(=O)[C@H](Cc2ccc(O)cc2)NC(=O)[C@H](C(C)C)NC(=O)[C@H](CC(=O)O)NC(=O)[C@H](Cc2ccc(C(=O)O)cc2)NC(=O)[C@H](CC2CCNCC2)NC(=O)CNC(=O)[C@H](C(C)C)NC1=O [compound 285, DOTA-PEG8-hLeu-Y-C-V-G-PipAla-4COOHPhe-D-V-Y-C-5FW-F-Pro-CONH2] ({DOTA-PEG8}-[hLeu]YCVG[Ala(piperidin-4-yl)][Phe(4-COOH)]DVYC[Trp(5-F)]FP-NH2; disulfide 3-11)",1 to 10 nM
5,"CC(=O)N[C@@H](CCC(C)C)C(=O)N[C@@H](Cc1ccc(O)cc1)C(=O)N[C@H]1CSSC[C@@H](C(=O)N[C@@H](Cc2cccc3ccccc23)C(=O)N[C@@H](Cc2ccccc2)C(=O)N2C[C@@H](O)C[C@H]2C(N)=O)NC(=O)[C@H](Cc2ccc(O)cc2)NC(=O)[C@H](C(C)C)NC(=O)[C@H](CC(=O)O)NC(=O)[C@H](Cc2ccncc2)NC(=O)[C@H](CCCCNC(=O)CN2CCN(CC(=O)O)CCN(CC(=O)O)CCN(CC(=O)O)CC2)NC(=O)CNC(=O)[C@H](C(C)(C)C)NC1=O [compound 250, Ac-hLeu-Y-C-Tbg-G-Lys(DOTA)-4PyA-D-V-Y-C-1Nal-F-(cisHyp)-CONH2] (Ac-[hLeu]YC[Tle]GK(DOTA)[4Pal]DVYC[1Nal]F[cisHyp]-NH2; disulfide 3-11)",10 to 100 nM
6,"CCCC[C@H](NC(C)=O)C(=O)N[C@@H](Cc1ccc(O)cc1)C(=O)N[C@H]1CSSC[C@@H](C(=O)N[C@@H](Cc2c[nH]c3ccccc23)C(=O)N[C@@H](Cc2ccccc2)C(=O)N[C@H](C(N)=O)[C@@H](C)O)NC(=O)[C@H](Cc2ccc(O)cc2)NC(=O)[C@H](C(C)C)NC(=O)[C@H](CC(=O)O)NC(=O)[C@H](Cc2ccc(O)cc2)NC(=O)[C@H](CCCCN)NC(=O)CNC(=O)[C@H](C(C)C)NC1=O [compound 32, Ac-Nle-Y-C-V-G-K-Y-D-V-Y-C-W-F-Thr-CONH2] (Ac-[Nle]YCVGKYDVYCWFT-NH2; disulfide 3-11)",1 to 10 nM

# Same assay, conditions: SPR KD—37° C., 4Ig B7-H3; 37° C. flow cell temperature
row,SMILES,Kd
1,"CC(=O)N[C@@H](CCC(C)C)C(=O)N[C@@H](Cc1ccc(O)cc1)C(=O)N[C@H]1CSSC[C@@H](C(=O)N[C@@H](Cc2c[nH]c3ccc(F)cc23)C(=O)N[C@@H](Cc2ccccc2)C(=O)N[C@H](C(=O)N[C@H](CCCCNC(=O)CN2CCN(CC(=O)O)CCN(CC(=O)O)CCN(CC(=O)O)CC2)C(=O)O)C(C)(C)O)NC(=O)[C@H](Cc2ccc(O)cc2)NC(=O)[C@H](C(C)C)NC(=O)[C@H](CC(=O)O)NC(=O)[C@H](CC2CCOCC2)NC(=O)[C@H](CCCCNC(=O)CC[C@H](NC(=O)CCCCCCCCCCCCCCC(=O)O)C(=O)O)NC(=O)CNC(=O)[C@H](C(C)(C)C)NC1=O [compound 405, Ac-hLeu-Y-C-Tbg-G-K(yE-C16OH)-ThpA-D-V-Y-C-5FW-F-hydroxyVal-dLys(DOTA)-COOH] (Ac-[hLeu]YC[Tle]GK([γGlu-C16 diacid])[Ala(4-THP)]DVYC[Trp(5-F)]F[Val(3-OH)][dK](DOTA)-OH; disulfide 3-11)",10 to 100 nM
2,"CC(=O)N[C@@H](CCC(C)C)C(=O)N[C@@H](Cc1ccc(O)cc1)C(=O)N[C@H]1CSSC[C@@H](C(=O)N[C@@H](Cc2c[nH]c3ccc(F)cc23)C(=O)N[C@@H](Cc2ccccc2)C(=O)N[C@H](C(=O)N[C@H](CO)C(=O)O)C(C)(C)O)NC(=O)[C@H](Cc2ccc(O)cc2)NC(=O)[C@H](C(C)C)NC(=O)[C@H](CC(=O)O)NC(=O)[C@H](CC2CCN(C(=O)CCOCCOCCOCCOCCNC(=O)CN3CCN(CC(=O)O)CCN(CC(=O)O)CCN(CC(=O)O)CC3)CC2)NC(=O)[C@H](CC2CCNCC2)NC(=O)CNC(=O)[C@H](C(C)(C)C)NC1=O [compound 483, Ac-hLeu-Y-C-Tbg-G-PipAla-Pip(PEG4-DOTA)Ala-D-V-Y-C-5FW-F-hydroxyVal-dSer-COOH] (Ac-[hLeu]YC[Tle]G[Ala(piperidin-4-yl)][Ala(piperidin-4-yl)]([PEG4-DOTA])DVYC[Trp(5-F)]F[Val(3-OH)][dS]-OH; disulfide 3-11)",< 1 nM
3,"CC(=O)N[C@@H](CCC(C)C)C(=O)N[C@@H](Cc1ccc(O)cc1)C(=O)N[C@H]1CSSC[C@@H](C(=O)N[C@@H](Cc2c[nH]c3ccc(F)cc23)C(=O)N[C@@H](Cc2ccccc2)C(=O)N[C@H](C(=O)N[C@H](CCCCN)C(N)=O)C(C)(C)O)NC(=O)[C@H](Cc2ccc(O)cc2)NC(=O)[C@H](C(C)C)NC(=O)[C@H](CC(=O)O)NC(=O)[C@H](CC2CCOCC2)NC(=O)[C@H](CCCCNC(=O)CN2CCN(CC(=O)O)CCN(CC(=O)O)CCN(CC(=O)O)CC2)NC(=O)CNC(=O)[C@H](C(C)(C)C)NC1=O [compound 337, Ac-hLeu-Y-C-Tbg-G-Lys(DOTA)-ThpA-D-V-Y-C-5FW-F-hydroxyVal-dLys-CONH2] (Ac-[hLeu]YC[Tle]GK(DOTA)[Ala(4-THP)]DVYC[Trp(5-F)]F[Val(3-OH)][dK]-NH2; disulfide 3-11)",1 to 10 nM
4,"CCCC[C@H](NC(C)=O)C(=O)N[C@@H](Cc1ccc(O)cc1)C(=O)N[C@H]1CSSC[C@@H](C(=O)N[C@@H](Cc2c[nH]c3ccccc23)C(=O)N[C@@H](Cc2ccccc2)C(=O)N[C@H](C(N)=O)[C@@H](C)O)NC(=O)[C@H](Cc2ccc(O)cc2)NC(=O)[C@H](C(C)C)NC(=O)[C@H](CC(=O)O)NC(=O)[C@H](Cc2ccc(O)cc2)NC(=O)[C@H](CCCCN)NC(=O)CNC(=O)[C@H](C(C)C)NC1=O [compound 32, Ac-Nle-Y-C-V-G-K-Y-D-V-Y-C-W-F-Thr-CONH2] (Ac-[Nle]YCVGKYDVYCWFT-NH2; disulfide 3-11)",10 to 100 nM
